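Assay format: 96-well plates, 48-hour exposure. Here, GI50 denotes the concentration required for 50% inhibition of growth. At the TGI there is no net growth.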
Key:
Test in all cases: NCI tumour cell line growth inhibition, 48 h
PC-3 prostate = system: PC-3 prostate
A549 NSCLC = system: A549 NSCLC
UO-31 renal = system: UO-31 renal
RXF 393 renal = system: RXF 393 renal
HCT-15 colon = system: HCT-15 colon
UACC-62 melanoma = system: UACC-62 melanoma
OVCAR-4 ovarian = system: OVCAR-4 ovarian
SF-268 CNS = system: SF-268 CNS
SK-MEL-28 melanoma = system: SK-MEL-28 melanoma
COLO 205 colon = system: COLO 205 colon
HOP-92 NSCLC = system: HOP-92 NSCLC
UACC-257 melanoma = system: UACC-257 melanoma
786-0 renal = system: 786-0 renal
NCI-H23 lung = system: NCI-H23 lung
M14 melanoma = system: M14 melanoma
LOX IMVI melanoma = system: LOX IMVI melanoma
BT-549 breast = system: BT-549 breast
K-562 leukemia = system: K-562 leukemia
SK-MEL-5 melanoma = system: SK-MEL-5 melanoma
HOP-62 NSCLC = system: HOP-62 NSCLC
OVCAR-8 ovarian = system: OVCAR-8 ovarian
HCT-116 colon = system: HCT-116 colon
SK-OV-3 ovarian = system: SK-OV-3 ovarian
SF-295 CNS = system: SF-295 CNS
SW-620 colon = system: SW-620 colon
MDA-MB-435 = system: MDA-MB-435
TK-10 renal = system: TK-10 renal
T-47D breast = system: T-47D breast
U251 CNS = system: U251 CNS
NCI-H522 lung = system: NCI-H522 lung
CCRF-CEM leukemia = system: CCRF-CEM leukemia
MOLT-4 leukemia = system: MOLT-4 leukemia
DU-145 prostate = system: DU-145 prostate
HCC-2998 colon = system: HCC-2998 colon
NCI/ADR-RES ovarian = system: NCI/ADR-RES ovarian
HS 578T breast = system: HS 578T breast
ACHN renal = system: ACHN renal
SF-539 CNS = system: SF-539 CNS
SNB-75 CNS = system: SNB-75 CNS
NCI-H226 lung = system: NCI-H226 lung
IGROV1 ovarian = system: IGROV1 ovarian
OVCAR-3 ovarian = system: OVCAR-3 ovarian
MDA-MB-231 breast = system: MDA-MB-231 breast
HT29 colon = system: HT29 colon
OVCAR-5 ovarian = system: OVCAR-5 ovarian
RPMI-8226 leukemia = system: RPMI-8226 leukemia
SK-MEL-2 melanoma = system: SK-MEL-2 melanoma
NCI-H460 lung = system: NCI-H460 lung
CAKI-1 renal = system: CAKI-1 renal
EKVX NSCLC = system: EKVX NSCLC
A498 renal = system: A498 renal
SN12C renal = system: SN12C renal
SNB-19 CNS = system: SNB-19 CNS

SMILES: CCCCCCCCNCCC[C@@H](C)[C@H]1CC[C@H]2[C@@H]3[C@H](OCCCN)C[C@H]4C[C@H](OCCCN)CC[C@]4(C)[C@H]3C[C@H](OCCCN)[C@]12C
- GI50 (PC-3 prostate): 5.58 µM
- TGI (PC-3 prostate): > 49.3 µM
- GI50 (A549 NSCLC): 2.43 µM
- TGI (A549 NSCLC): 8.81 µM
- GI50 (UO-31 renal): 1.49 µM
- TGI (UO-31 renal): 3.72 µM
- GI50 (RXF 393 renal): 2.22 µM
- TGI (RXF 393 renal): 16.4 µM
- GI50 (HCT-15 colon): 3.39 µM
- TGI (HCT-15 colon): 16.9 µM
- GI50 (UACC-62 melanoma): 1 µM
- TGI (UACC-62 melanoma): 3.84 µM
- GI50 (OVCAR-4 ovarian): 8.27 µM
- TGI (OVCAR-4 ovarian): 29.4 µM
- GI50 (SF-268 CNS): 1.5 µM
- TGI (SF-268 CNS): 3.7 µM
- GI50 (SK-MEL-28 melanoma): 0.776 µM
- TGI (SK-MEL-28 melanoma): 2.78 µM
- GI50 (COLO 205 colon): 2.6 µM
- TGI (COLO 205 colon): 7.77 µM
- GI50 (HOP-92 NSCLC): 0.429 µM
- TGI (HOP-92 NSCLC): 8.46 µM
- GI50 (UACC-257 melanoma): 2.89 µM
- TGI (UACC-257 melanoma): 8.64 µM
- GI50 (786-0 renal): 1.21 µM
- TGI (786-0 renal): 3.3 µM
- GI50 (NCI-H23 lung): 1.81 µM
- TGI (NCI-H23 lung): 5.4 µM
- GI50 (M14 melanoma): 1.64 µM
- TGI (M14 melanoma): 4.87 µM
- GI50 (LOX IMVI melanoma): 1.57 µM
- TGI (LOX IMVI melanoma): 3.54 µM
- GI50 (BT-549 breast): 1.43 µM
- TGI (BT-549 breast): 4.35 µM
- GI50 (K-562 leukemia): 2.84 µM
- TGI (K-562 leukemia): 11.5 µM
- GI50 (SK-MEL-5 melanoma): 2.24 µM
- TGI (SK-MEL-5 melanoma): 6.54 µM
- GI50 (HOP-62 NSCLC): 1.53 µM
- TGI (HOP-62 NSCLC): 7.16 µM
- GI50 (OVCAR-8 ovarian): 1.82 µM
- TGI (OVCAR-8 ovarian): 4.07 µM
- GI50 (HCT-116 colon): 0.87 µM
- TGI (HCT-116 colon): 2.61 µM
- GI50 (SK-OV-3 ovarian): 4.72 µM
- TGI (SK-OV-3 ovarian): 21.9 µM
- GI50 (SF-295 CNS): 0.993 µM
- TGI (SF-295 CNS): 4.43 µM
- GI50 (SW-620 colon): 1.72 µM
- TGI (SW-620 colon): 3.85 µM
- GI50 (MDA-MB-435): 0.768 µM
- TGI (MDA-MB-435): 2.5 µM
- GI50 (TK-10 renal): 1.79 µM
- TGI (TK-10 renal): 7.36 µM
- GI50 (T-47D breast): 3.92 µM
- TGI (T-47D breast): > 26.7 µM
- GI50 (U251 CNS): 2.23 µM
- TGI (U251 CNS): 6.32 µM
- GI50 (NCI-H522 lung): 2.48 µM
- TGI (NCI-H522 lung): 7.16 µM
- GI50 (CCRF-CEM leukemia): 1.89 µM
- TGI (CCRF-CEM leukemia): 4.27 µM
- GI50 (MOLT-4 leukemia): 3.12 µM
- TGI (MOLT-4 leukemia): 9.69 µM
- GI50 (DU-145 prostate): 1.14 µM
- TGI (DU-145 prostate): 2.35 µM
- GI50 (HCC-2998 colon): 2.04 µM
- TGI (HCC-2998 colon): 7 µM
- GI50 (NCI/ADR-RES ovarian): 1.93 µM
- TGI (NCI/ADR-RES ovarian): 5.27 µM
- GI50 (HS 578T breast): 2.43 µM
- TGI (HS 578T breast): 5.59 µM
- GI50 (ACHN renal): 2.02 µM
- TGI (ACHN renal): 6.41 µM
- GI50 (SF-539 CNS): 0.81 µM
- TGI (SF-539 CNS): 2.6 µM
- GI50 (SNB-75 CNS): 2.52 µM
- TGI (SNB-75 CNS): 11.6 µM
- GI50 (NCI-H226 lung): 5.21 µM
- TGI (NCI-H226 lung): 23.6 µM
- GI50 (IGROV1 ovarian): 1.49 µM
- TGI (IGROV1 ovarian): 3.25 µM
- GI50 (OVCAR-3 ovarian): 5 µM
- TGI (OVCAR-3 ovarian): 21.5 µM
- GI50 (MDA-MB-231 breast): 0.983 µM
- TGI (MDA-MB-231 breast): 7.11 µM
- GI50 (HT29 colon): 1.71 µM
- TGI (HT29 colon): 7.59 µM
- GI50 (OVCAR-5 ovarian): 2.26 µM
- TGI (OVCAR-5 ovarian): 12.5 µM
- GI50 (RPMI-8226 leukemia): 1.27 µM
- TGI (RPMI-8226 leukemia): 3.49 µM
- GI50 (SK-MEL-2 melanoma): 3.75 µM
- TGI (SK-MEL-2 melanoma): > 31.3 µM
- TGI (NCI-H460 lung): > 19.8 µM
- GI50 (CAKI-1 renal): 3.09 µM
- TGI (CAKI-1 renal): 15.4 µM
- GI50 (EKVX NSCLC): 2.01 µM
- TGI (EKVX NSCLC): 6.65 µM
- GI50 (A498 renal): 21.3 µM
- TGI (A498 renal): 54.5 µM
- GI50 (SN12C renal): 1.21 µM
- TGI (SN12C renal): 5.68 µM
- GI50 (SNB-19 CNS): 1.69 µM
- TGI (SNB-19 CNS): 5.24 µM

Source: PubChem BioAssay (NCI)
